Measured values: patent US20260207754A1, “MET PROTEIN DEGRADATION INDUCING COMPOUND” (ONCOZEN CO., LTD., priority 2022, published 2026)

Columns and labels:
Format in all cases: cell-based
c-MET (total form) [1] = experiment: Target protein degradation assay (Western blot); details: H1437 cells, standard concentration and time 5 μM, 72 hours
Method: Cells (H596 or H1437 cells) were seeded in Φ60 or Φ100 culture dishes to reach 5×10^5 or 1×10^6 cells, and then cultured for more than 12 hours. […] The cells were then harvested, lysed using RIPA buffer, and centrifuged (4° C., 13000 rpm, 15 min), to collect the supernatant in a new tube. Protein quantification was performed using the Bradford Assay, and samples were prepared for loading by boiling at 95° C. Western blotting was performed. The samples were loaded onto an SDS polyacrylamide gel (8% concentration). Electrophoresis was conducted at 80V, and then switched to 100-120V (when the loaded sample moves from the stacking gel to the running gel). After electrophoresis, the polyacrylamide gel was transferred onto the membrane (using transfer buffer diluted at 10× transfer buffer:methanol:D.W=1:2:7 ratio, cold, for 100V, 1 hour or 80V, 2 hours). The membrane was blocked with 5% skim milk for 30 minutes and washed with PBS-T (phosphate-buffered saline with Tween 20) buffer. The primary antibody was diluted in 5% BSA+NaN3 solution and reacted with the membrane for over 12 hours, followed by washing with PBS-T and reaction with 5% skim milk+secondary antibody for 1 hour and 30 minutes. After washing with PBS-T, the ECL solution was reacted with the membrane, and the bands were detected using an imaging device to confirm the degradation of the target protein c-MET.

H1437 cells = experiment: Cell viability assay (CCK8); details: three days treatment
Method: (§1) This experiment involves treating cells with each of the compounds prepared in Examples 1 to 11, and then observing changes in cell cytotoxicity and cell count. The IC50 values, derived from the changes in cell count, can be used to assess the cancer cell growth inhibition and anti-cancer effects of the compound of the present invention.
(§2) Cells (H596 or H1437 cells) were seeded in a 96-well plate at 3×10^3 cells per well and then cultured for more than 12 hours. After removing the media, each well was treated with 200 μl of the respective diluted compounds prepared in Examples 1 to 11. Three days later, the media was removed, and each well was treated with 10 μl of CCK8 reagent+90 μl of media. After 3-4 hours of reaction, the absorbance was measured using an ELISA reader at a wavelength of 450 nm.

H596 cells = experiment: Cell viability assay (CCK8); details: three days treatment
Method: as §1, §2

c-MET (total form) [2] = experiment: Target protein degradation assay (Western blot); details: for c-MET degradation H596: H596 cells, Western blot, standard concentration and time 5 μM, 72 hours; for degradation of the target MET protein: H596 or H1437 cells, summary of Table 3
Method: This experiment assessed the tendency and extent of degradation of the target protein c-MET (total form) in cells treated with each of the compounds prepared in Examples 1 to 11.
Cells (H596 or H1437 cells) were seeded in Φ60 or Φ100 culture dishes to reach 5×10^5 or 1×10^6 cells, and then cultured for more than 12 hours. After removing the media, the cells were treated with each respective compound prepared in Examples 1 to 11 at various conditions-concentrations (0, 2.5, 5, 10 μM), time (0, 6, 8, 24, 48, 72 hours), and standard concentration and time (5 μM, 72 hours) for all compounds. The cells were then harvested, lysed using RIPA buffer, and centrifuged (4° C., 13000 rpm, 15 min), to collect the supernatant in a new tube. Protein quantification was performed using the Bradford Assay, and samples were prepared for loading by boiling at 95° C. Western blotting was performed. The samples were loaded onto an SDS polyacrylamide gel (8% concentration). Electrophoresis was conducted at 80V, and then switched to 100-120V (when the loaded sample moves from the stacking gel to the running gel). After electrophoresis, the polyacrylamide gel was transferred onto the membrane (using transfer buffer diluted at 10× transfer buffer:methanol:D.W=1:2:7 ratio, cold, for 100V, 1 hour or 80V, 2 hours). The membrane was blocked with 5% skim milk for 30 minutes and washed with PBS-T (phosphate-buffered saline with Tween 20) buffer. The primary antibody was diluted in 5% BSA+NaN3 solution and reacted with the membrane for over 12 hours, followed by washing with PBS-T and reaction with 5% skim milk+secondary antibody for 1 hour and 30 minutes. After washing with PBS-T, the ECL solution was reacted with the membrane, and the bands were detected using an imaging device to confirm the degradation of the target protein c-MET.

Compound | c-MET degradation H1437 (c-MET (total form) [1]) | IC50 (H1437 cells; Homo sapiens, NCI-H1437, 72 h) | IC50 (H596 cells; Homo sapiens, NCI-H596, 72 h) | c-MET degradation H596 (c-MET (total form) [2]) | degradation of the target MET protein (c-MET (total form) [2]) | IC50 (H1437 cells) | IC50 (H596 cells)
CC(C)c1cc(C(=O)N(C)Cc2ccc(C(=O)NCCCCC(=O)N3CCC(n4cc(-c5cnc(N)c(O[C@@H](C)c6c(Cl)ccc(F)c6Cl)c5)cn4)CC3)cc2)c(O)cc1O (stereo in doubt) [OZD-MET 03, N-{[4-({5-[4-(4-{6-amino-5-[1-(2,6-dichloro-3-fluorophenyl)ethoxy]pyridine-3-yl}pyrazol-1-yl)piperidin-1-yl]-5-oxopentyl}carbamoyl)phenyl]methyl}-2,4-dihydroxy-5-isopropyl-N-methylbenzamide] | 1 (50% < degradation: 1) | 2.64 µM | 1.97 µM | 1 (50% < degradation: 1) | – | – | –
CC(C)c1cc(C(=O)N(C)Cc2cccc(C(=O)O)c2)c(O)cc1O [Compound (d), reference compound] | No degradation | – | – | No degradation | no degradation | – | –
CC(C)c1cc(C(=O)N(C)Cc2ccc(C(=O)NCCCCC(=O)N3CCC(COc4cnc(-c5cccc(Cn6nc(-c7cccc(C#N)c7)ccc6=O)c5)nc4)CC3)cc2)c(O)cc1O [OZD-MET 11, N-{[4-({5-[4-({[2-(3-{[3-(3-cyanophenyl)-6-oxopyridazin-1-yl]methyl}phenyl)pyrimidin-5-yl]oxy}methyl)piperidin-1-yl]-5-oxopentyl}carbamoyl)phenyl]methyl}-2,4-dihydroxy-5-isopropyl-N-methylbenzamide] | 1 (50% < degradation: 1) | 3.44 µM | 3.99 µM | 2 (10% < degradation < 50%: 2) | – | – | –
CC(C)c1cc(C(=O)N(C)Cc2ccc(C(=O)NCCCCC(=O)Nc3ccc4nccc(Oc5ccc(NC(=O)C6(C(=O)Nc7ccc(F)cc7)CC6)cc5)c4c3)cc2)c(O)cc1O [OZD-MET 07, N′1-{4-[(6-{5-[(4-{[1-(2,4-dihydroxy-5-isopropylphenyl)-N-methylformamido]methyl}phenyl)formamido]pentanamido}quinolin-4-yl)oxy]phenyl}-N1-(4-fluorophenyl)cyclopropane-1,1-dicarboxamide] | 2 (10% < degradation < 50%: 2) | 3.21 µM | 3.43 µM | 1 (50% < degradation: 1) | – | – | –
C[C@@H](Oc1cc(-c2cnn(C3CCNCC3)c2)cnc1N)c1c(Cl)ccc(F)c1Cl [Crizotinib, reference compound] | – | 31.9 µM | 20.3 µM | No degradation | no degradation | – | –
CC(C)c1cc(C(=O)N(C)Cc2ccc(C(=O)NCCOCCOC(=O)N3CCC(n4cc(-c5cnc(N)c(O[C@@H](C)c6c(Cl)ccc(F)c6Cl)c5)cn4)CC3)cc2)c(O)cc1O [OZD-MET 02] | 1 (50% < degradation: 1) | 4.06 µM | 2.59 µM | 1 (50% < degradation: 1) | – | – | –
CC(C)c1cc(C(=O)N(C)Cc2cccc(C(=O)NCCOCCOC(=O)Nc3ccc4nccc(Oc5ccc(NC(=O)C6(C(=O)Nc7ccc(F)cc7)CC6)cc5)c4c3)c2)c(O)cc1O [OZD-MET 06, 2-{2-[(3-{[1-(2,4-dihydroxy-5-isopropylphenyl)-N-methylformamido]methyl}phenyl)formamido]ethoxy}ethyl N-[4-(4-{1-[(4-fluorophenyl)carbamoyl]cyclopropanamido}phenoxy)quinolin-6-yl)carbamate] | 2 (10% < degradation < 50%: 2) | 4.25 µM | 3.38 µM | 2 (10% < degradation < 50%: 2) | – | – | –
CC(C)c1cc(C(=O)N(C)Cc2cccc(C(=O)NCCOCCOC(=O)n3cc(-c4cnc5nnn([C@@H](C)c6ccc7nccn7c6)c5n4)cn3)c2)c(O)cc1O [OZD-MET 04, 2-{2-[(3-{[1-[2,4-dihydroxy-5-isopropylphenyl]-N-methylformamido]methyl}phenyl)formamido]ethoxy}ethyl 4-[3-(1-{imidazole[1,2-a]pyridin-6-yl}ethyl)-[1,2,3]triazolo[4,5-b]pyrazin-5-yl]pyrazole-1-carboxylate] | 3 (degradation < 10%: 3) | 4.65 µM | 4.18 µM | 2 (10% < degradation < 50%: 2) | – | – | –
CC(C)c1cc(C(=O)N(C)Cc2cccc(C(=O)NCCOCCOC(=O)N3CCC(n4cc(-c5cnc(N)c(O[C@@H](C)c6c(Cl)ccc(F)c6Cl)c5)cn4)CC3)c2)c(O)cc1O (stereo in doubt) [OZD-MET 01, 2-{2-[(3-{[1-(2,4-dihydroxy-5-isopropylphenyl)-N-methylformamido]methyl}phenyl)formamido]ethoxy}ethyl 4-(4-{6-amino-5-[1-(2,6-dichloro-3-fluorophenyl)ethoxy]pyridin-3-yl}pyrazol-1-yl)piperidine-1-carboxylate] | 1 (50% < degradation: 1) | 3.5 µM | 3.07 µM | 1 (50% < degradation: 1) | – | – | –
CC(C)c1cc(C(=O)N(C)Cc2cccc(C(=O)NCCOCCOC(=O)N3CCC(COc4cnc(-c5cccc(Cn6nc(-c7cccc(C#N)c7)ccc6=O)c5)nc4)CC3)c2)c(O)cc1O [OZD-MET 10, 2-{2-[(3-{[1-(2,4-dihydroxy-5-isopropylphenyl)-N-methylformamido]methyl}phenyl)formamido]ethoxy}ethyl 4-({[2-(3-{[3-(3-cyanophenyl)-6-oxopyridazin-1-yl]methyl}phenyl)pyrimidin-5-yl]oxy}methyl)piperidine-1-carboxylate] | 1 (50% < degradation: 1) | 3.29 µM | 3.19 µM | 1 (50% < degradation: 1) | – | – | –
CC(C)c1cc(C(=O)N(C)Cc2ccc(C(=O)O)cc2)c(O)cc1O [Compound (i), reference compound] | No degradation | – | – | No degradation | no degradation | – | –
CC(C)c1cc(C(=O)N(C)Cc2cccc(C(=O)NCCOCCOC(=O)Nc3ccc(-c4cnc5ncc(Cc6ccc7ncccc7c6)n5n4)cc3F)c2)c(O)cc1O [OZD-MET 08, 2-{2-[(3-{[1-(2,4-dihydroxy-5-isopropylphenyl)-N-methylformamido]methyl}phenyl)formamido]ethoxy}ethyl N-{2-fluoro-4-[7-(quinolin-6-ylmethyl)imidazo[1,2-b][1,2,4]triazin-2-yl]phenyl}carbamate] | 2 (10% < degradation < 50%: 2) | 4.34 µM | 3.08 µM | 1 (50% < degradation: 1) | – | – | –
CC(C)c1cc(C(=O)N(C)Cc2ccc(C(=O)NCCCCC(=O)Nc3ccc(-c4cnc5ncc(Cc6ccc7ncccc7c6)n5n4)cc3F)cc2)c(O)cc1O [OZD-MET 09, N-[(4-{[4-({2-fluoro-4-[7-(quinolin-6-ylmethyl)imidazo[1,2-b][1,2,4]triazin-2-yl]phenyl}carbamoyl)butyl]carbamoyl}phenyl)methyl]-2,4-dihydroxy-5-isopropyl-N-methyl-benzamide] | 1 (50% < degradation: 1) | 3.11 µM | 4.18 µM | 2 (10% < degradation < 50%: 2) | – | – | –
2,4-dihydroxy-N-({4-[(5-{4-[3-(1-{imidazole[1,2-a]pyridin-6-yl}ethyl)-[1,2,3]triazolo[4,5-b]pyrazin-5-yl]pyrazol-1-yl}-5-oxopentyl) carbamoyl]phenyl}methyl)-5-isopropyl-N-methylbenzamide [OZD-MET 05] | 2 (10% < degradation < 50%: 2) | – | – | 2 (10% < degradation < 50%: 2) | – | 5.71 µM | 4.72 µM
